The values below come from paper PMC11053914 (Viruses, 2024).

Peptide text beside a SMILES is read from it. * marks the point of attachment. Cbz = O=C(OCc1ccccc1)*

Data set [1] relates to A3G (Vif-mediated degradation). Put plainly: A3G level in the presence of Vif by Western blotting in HEK293T cells. In kind it is cell-based, human. Particulars: proteasome inhibitor positive control; A3G without Vif = 100%, Vif alone 31%. On the technique in general: A western blot detects proteins with antibodies after separation by electrophoresis.
Data set [2] deals with HIV-1 NL4-3 packaged with A3G. The class given is cell-based. As to conditions: peptides at 25, 50 or 100 μM; DMSO group set to 100%; TZM-bl read-out.
The test system of data set [3] is CEM cells. The experiment in a line: Growth of infected CEM cells, trypan blue staining. Particulars: infected cells with 50 μM peptide, trypan blue staining every other day. In kind it is cell-based.
In data set [4] the test system is CEM-SS cells. Put plainly: Growth of infected CEM-SS cells, trypan blue staining. The class given is cell-based. Particulars: infected cells with 50 μM peptide, trypan blue staining every other day.
The subject of data set [5] is CEM cells. Put plainly: Cytotoxicity assay (CellTiter-Glo) in CEM cells. The class given is cell-based. Particulars: 2-fold dilutions from 100 μM, 48 h, DMSO group = 100%.
Data set [6] concerns CEM-SS cells. The experiment in a line: Cytotoxicity assay (CellTiter-Glo) in CEM-SS cells. The class given is cell-based. As to conditions: 2-fold dilutions from 100 μM, 48 h, DMSO group = 100%. (In general: ATP-based viability assays read luminescence as a measure of living cells.)
In data set [7] the target is wild-type (WT) Vif displayed on yeast cells (HIV-1) (UniProt P69723). The experiment in a line: flow cytometry on cells. Background: Flow cytometry measures light scatter and fluorescence of single cells or particles in a stream.
Chain of UniProt P69723 (P69723 whole entry): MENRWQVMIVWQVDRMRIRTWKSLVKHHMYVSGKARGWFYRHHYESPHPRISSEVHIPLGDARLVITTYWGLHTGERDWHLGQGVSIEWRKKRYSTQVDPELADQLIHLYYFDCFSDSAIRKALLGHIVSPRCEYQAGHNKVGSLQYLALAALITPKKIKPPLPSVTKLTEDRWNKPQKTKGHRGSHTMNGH

Consider `CC(C)C[C@@H](C=O)NC(=O)[C@H](CC(C)C)NC(=O)[C@H](CC(C)C)NC(=O)OCc1ccccc1` [MG132] (Cbz-Leu-Leu-Leu-aldehyde), for which the “A3G level in the presence of Vif” value in data set [1] was determined as 73%.

`CC[C@H](C)[C@H](NC(=O)[C@H](CCSC)NC(=O)[C@@H](NC(=O)[C@H](CCC(=O)O)NC(C)=O)C(C)C)C(=O)N[C@H](C(=O)N[C@@H](Cc1c[nH]c2ccccc12)C(=O)N[C@@H](CCC(=O)O)C(=O)N[C@H](C(=O)N[C@@H](CC(=O)O)C(=O)N[C@@H](CCCNC(=N)N)C(=O)N[C@@H](CCSC)C(=O)N[C@@H](CCCNC(=N)N)C(=O)N[C@H](C(=O)N[C@H](C(=O)N[C@H](C(N)=O)[C@@H](C)O)[C@@H](C)O)[C@@H](C)CC)C(C)C)C(C)C` [VMP-6] (Ac-EVMIVWEVDRMRITT-NH2): the “effect on infectivity of the A3G-containing viruses” value (“effect on infectivity” below) in data set [2] is listed as “did not affect the viral infectivity”.

Consider `CC[C@H](C)[C@H](NC(=O)[C@H](C)NC(=O)[C@H](CC(C)C)NC(=O)CNC(C)=O)C(=O)N[C@H](C(=O)N[C@H](C(=O)N[C@@H](Cc1ccc(O)cc1)C(=O)N[C@@H](Cc1c[nH]c2ccccc12)C(=O)NCC(=O)N[C@@H](CC(C)C)C(=O)N[C@@H](Cc1c[nH]cn1)C(=O)N[C@H](C(=O)NCC(=O)N[C@@H](CCC(=O)O)C(=O)N[C@@H](CCCNC(=N)N)C(=O)NCC(N)=O)[C@@H](C)O)[C@@H](C)O)[C@@H](C)O` [VMP-63], for which the “growth of CEM cells” value in the data set with CEM cells [3] is on record as “not affected”. The “growth of CEM-SS cells” value in the data set on CEM-SS cells [4] is given as “not affected”. Further, the “cytotoxicity on CEM cells” value with CEM cells [5] is “almost no cytotoxicity”. Moreover, the “cytotoxicity on CEM-SS cells” value with CEM-SS cells [6] is on record as “almost no cytotoxicity”.

On to `CC(=O)N[C@@H](Cc1c[nH]c2ccccc12)C(=O)NCC(=O)N[C@@H](CC(C)C)C(=O)N[C@@H](Cc1c[nH]cn1)C(=O)N[C@H](C(=O)NCC(=O)N[C@@H](CCC(=O)O)C(=O)N[C@@H](CCCNC(=N)N)C(=O)NCC(N)=O)[C@@H](C)O` [VMP-70] (Ac-WGLHTGERG-NH2), for which the “effect on infectivity” value in data set [2] is recorded as “did not affect the viral infectivity”.

For `CC[C@H](C)[C@H](NC(=O)[C@H](C)NC(=O)[C@H](CO)NC(=O)[C@H](CC(N)=O)NC(=O)[C@H](CO)NC(=O)[C@H](Cc1ccccc1)NC(=O)[C@H](CS)NC(=O)[C@H](CC(=O)O)NC(=O)[C@H](Cc1ccccc1)NC(=O)[C@H](Cc1ccc(O)cc1)NC(=O)[C@H](Cc1ccc(O)cc1)NC(=O)[C@H](CC(C)C)NC(=O)[C@H](CCCNC(=N)N)NC(C)=O)C(N)=O` [VMP-108], the “growth of CEM cells” value in the data set on CEM cells [3] is “not affected”. For the same compound, the “growth of CEM-SS cells” value with CEM-SS cells [4] is on record as “not affected”. The “cytotoxicity on CEM cells” value with CEM cells [5] is reported as “almost no cytotoxicity”. Further, the “cytotoxicity on CEM-SS cells” value in the data set on CEM-SS cells [6] is on record as “almost no cytotoxicity”.

On to `CC(=O)N[C@@H](Cc1ccc(O)cc1)C(=O)N[C@@H](Cc1ccccc1)C(=O)N[C@@H](CC(=O)O)C(=O)N[C@@H](CS)C(=O)N[C@@H](Cc1ccccc1)C(=O)N[C@@H](CO)C(=O)N[C@@H](CC(N)=O)C(=O)N[C@@H](CO)C(=O)N[C@@H](C)C(=O)N[C@H](C(=O)N[C@@H](CCCNC(=N)N)C(=O)N[C@@H](CCCCN)C(=O)N[C@H](C(N)=O)C(C)C)[C@@H](C)O` [VMP-111] (Ac-YFDCFSNSATRKV-NH2), for which the “effect on infectivity” value in data set [2] is given as “did not affect the viral infectivity”.

Compound “CBFβ protein, purified (from UniProt Q13951 1-182) (natural protein)” gave an FITC-positive cells in data set [7] of 0.076%.
